{"source": "PubChem BioAssay AID1259409", "about": "(Chemical Carcinogenesis Research Information System (CCRIS), 2018)", "origin": "cited, not measured here", "system": "rodent chemically induced tumor inhibition, incidence and multiplicity", "test": "CCRIS tumor inhibitor studies", "conditions": "for tumour outcome (control, treated, inhibition, significance): Promoter: NONE USED"}
{"smiles": "O=[Se](O)O", "values": [{"measurement": "tumour outcome (control, treated, inhibition, significance)", "setting": "Carcinogen: N,N-DIETHYLNITROSAMINE, 55-18-5, Dose [Inhibitor]: 0.1 MG 5/WK STARTING 10-15 D BEFORE CARCINOGEN TREATMENT AND CONTINUING FOR DURATION OF STUDY (STUDY DURATION: 26 WK), Route [Inhibitor]: INTRAPERITONEAL, Species: RAT, Strain/Sex: BDIV AND WISTAR/MALE, Target Tissue: Type of Lesion: LIVER: TUMOR, Dose [Carcinogen]: 100 MG/L IN DRINKING WATER DAILY FOR 5 MO", "value": "18/19 (95%), 14/17 (82%), 14%, not calculated"}, {"measurement": "tumour outcome (control, treated, inhibition, significance)", "setting": "Carcinogen: N,N-DIETHYLNITROSAMINE, 55-18-5, Dose [Inhibitor]: 1 MG/L IN DRINKING WATER DAILY STARTING 10-15 D BEFORE CARCINOGEN TREATMENT AND CONTINUING FOR DURATION OF STUDY (STUDY, Route [Inhibitor]: ORAL, Species: RAT, Strain/Sex: BDIV AND WISTAR/MALE, Target Tissue: Type of Lesion: LIVER: TUMOR, Dose [Carcinogen]: 80 MG/KG BW IN 0.2 ML 0.9% SALINE 1/WK FOR 10 WK", "value": "17/20 (85%), 15/20 (75%), 12%, not calculated"}, {"measurement": "tumour outcome (control, treated, inhibition, significance)", "setting": "Carcinogen: N,N-DIETHYLNITROSAMINE, 55-18-5, Dose [Inhibitor]: 5 MG/L IN DRINKING WATER DAILY STARTING 10-15 D BEFORE CARCINOGEN TREATMENT AND CONTINUING FOR DURATION OF STUDY (STUDY, Route [Inhibitor]: ORAL, Species: RAT, Strain/Sex: BDIV AND WISTAR/MALE, Target Tissue: Type of Lesion: LIVER: TUMOR, Dose [Carcinogen]: 80 MG/KG BW IN 0.2 ML 0.9% SALINE 1/WK FOR 10 WK", "value": "15/16 (94%), 17/18 (94%), 0%, not calculated"}, {"measurement": "tumour outcome (control, treated, inhibition, significance)", "setting": "Carcinogen: N,N-DIETHYLNITROSAMINE, 55-18-5, Dose [Inhibitor]: 10 MG/L IN DRINKING WATER DAILY STARTING 10-15 D BEFORE CARCINOGEN TREATMENT AND CONTINUING FOR DURATION OF STUDY (STUDY, Route [Inhibitor]: ORAL, Species: RAT, Strain/Sex: BDIV AND WISTAR/MALE, Target Tissue: Type of Lesion: LIVER: TUMOR, Dose [Carcinogen]: 80 MG/KG BW IN 0.2 ML 0.9% SALINE 1/WK FOR 10 WK", "value": "15/16 (94%), 9/13 (69%), 27%, not calculated"}, {"measurement": "tumour outcome (control, treated, inhibition, significance)", "setting": "Carcinogen: N,N-DIETHYLNITROSAMINE, 55-18-5, Dose [Inhibitor]: 10 MG/L IN DRINKING WATER DAILY STARTING 10-15 D BEFORE CARCINOGEN TREATMENT AND CONTINUING FOR DURATION OF STUDY (STUDY, Route [Inhibitor]: ORAL, Species: RAT, Strain/Sex: BDIV AND WISTAR/MALE, Target Tissue: Type of Lesion: LIVER: TUMOR, Dose [Carcinogen]: 100 MG/L IN DRINKING WATER DAILY FOR 5 MO", "value": "18/19 (95%), 15/16 (94%), 1%, not calculated"}, {"measurement": "tumour outcome (control, treated, inhibition, significance)", "setting": "Carcinogen: N-METHYL-N'-NITRO-N-NITROSOGUANIDINE, 70-25-7, Dose [Inhibitor]: 10 MG/L IN DRINKING WATER DAILY STARTING 15 D BEFORE CARCINOGEN TREATMENT AND CONTINUING FOR DURATION OF STUDY (STUDY DU, Route [Inhibitor]: ORAL, Species: RAT, Strain/Sex: BDIV AND WISTAR/MALE, Target Tissue: Type of Lesion: STOMACH: TUMORS, Dose [Carcinogen]: 250 MG/KG BW PULSED DOSE IN 2 ML CORN OIL ONCE", "value": "18/25 (72%), 12/35 (75%), -4%, not calculated"}, {"measurement": "outcome", "setting": "Carcinogen: N-METHYL-N-NITRO-N'-NITROSO-GUANIDINE [70-25-7], Dose [Inhibitor]: 0, 2, 4 MG/L FOR 1 WK PRIOR TO CARCINOGEN (STUDY DURATION: 43 WKS), Dose [Inhibitor]: 0, 2, 4 MG/L FOR 1 WK PRIOR TO CARCINOGEN (STUDY DURATION: 43 WKS), Route [Inhibitor]: DRINKING WATER, Species: RAT, Strain/Sex: WISTAR/MALE, Target Tissue: Type of Lesion: LEIOMYOMA, Dose [Carcinogen]: 20 MG/KG BW DAILY FOR 10 D", "value": "23%; 47%, -104%; 43%, -87%"}, {"measurement": "tumour outcome (control, treated, inhibition, significance)", "setting": "Carcinogen: N-METHYL-N-NITROSOUREA, 684-9-35, Dose [Inhibitor]: 4 PPM IN DRINKING WATER DAILY FOR 10 MO STARTING SIMULTANEOUSLY WITH CARCINOGEN TREATMENT (STUDY DURATION: 10 MO), Route [Inhibitor]: ORAL, Species: RAT, Strain/Sex: WE/MALE, Target Tissue: Type of Lesion: BRAIN AND SPINAL CORD: NEOPLASM, Dose [Carcinogen]: 20 MG/KG BW ONCE EVERY 4 WK FOR 40 WK", "value": "6/15 (40%), 9/16 (56%), -40%, not significant"}, {"measurement": "tumour outcome (control, treated, inhibition, significance)", "setting": "Carcinogen: N-METHYL-N-NITROSOUREA, 684-9-35, Dose [Inhibitor]: 4 PPM IN DRINKING WATER DAILY FOR 10 MO STARTING SIMULTANEOUSLY WITH CARCINOGEN TREATMENT (STUDY DURATION: 10 MO), Route [Inhibitor]: ORAL, Species: RAT, Strain/Sex: WE/MALE, Target Tissue: Type of Lesion: FORESTOMACH: NEOPLASM, Dose [Carcinogen]: 20 MG/KG BW ONCE EVERY 4 WK FOR 40 WK", "value": "14/15 (93%), 16/16 (100%), -8%, not significant"}, {"measurement": "tumour outcome (control, treated, inhibition, significance)", "setting": "Carcinogen: N-METHYL-N-NITROSOUREA, 684-9-35, Dose [Inhibitor]: 4 PPM IN DRINKING WATER DAILY FOR 10 MO STARTING SIMULTANEOUSLY WITH CARCINOGEN TREATMENT (STUDY DURATION: 10 MO), Route [Inhibitor]: ORAL, Species: RAT, Strain/Sex: WE/MALE, Target Tissue: Type of Lesion: MAMMARY GLAND: NEOPLASM, Dose [Carcinogen]: 20 MG/KG BW ONCE EVERY 4 WK FOR 40 WK", "value": "3/15 (20%), 4/16 (25%), -25%, not significant"}, {"measurement": "tumour outcome (control, treated, inhibition, significance)", "setting": "Carcinogen: N-METHYL-N-NITROSOUREA, 684-9-35, Dose [Inhibitor]: 4 PPM IN DRINKING WATER DAILY FOR 10 MO STARTING SIMULTANEOUSLY WITH CARCINOGEN TREATMENT (STUDY DURATION: 10 MO), Route [Inhibitor]: ORAL, Species: RAT, Strain/Sex: WE/MALE, Target Tissue: Type of Lesion: PERIPHERAL NERVES: NEOPLASM, Dose [Carcinogen]: 20 MG/KG BW ONCE EVERY 4 WK FOR 40 WK", "value": "3/15 (20%), 8/16 (50%), -150%, not significant"}, {"measurement": "tumour outcome (control, treated, inhibition, significance)", "setting": "Carcinogen: N-METHYL-N-NITROSOUREA, 684-93-5, Dose [Inhibitor]: 1 MG IN DIET DAILY STARTING AT AGE 5 WK 2 WK PRIOR TO FIRST CARCINOGEN TREATMENT AND CONTINUING FOR DURATION OF STUDY (S, Route [Inhibitor]: ORAL, Species: HAMSTER, Strain/Sex: SYRIAN/MALE, Target Tissue: Type of Lesion: TRACHEA: CARCINOMA, Dose [Carcinogen]: 0.5% SOLUTION (PH 5) 1/WK FOR 12 WK", "value": "9/34 (26%), 8/33 (24%), 8%, not significant"}, {"measurement": "tumour outcome (control, treated, inhibition, significance)", "setting": "Carcinogen: N-METHYL-N-NITROSOUREA, 684-93-5, Dose [Inhibitor]: 1 MG IN DIET DAILY STARTING AT AGE 5 WK 2 WK PRIOR TO FIRST CARCINOGEN TREATMENT AND CONTINUING FOR DURATION OF STUDY (S, Route [Inhibitor]: ORAL, Species: HAMSTER, Strain/Sex: SYRIAN/MALE, Target Tissue: Type of Lesion: TRACHEA: NEOPLASM, Dose [Carcinogen]: 0.5% SOLUTION (PH 5) 1/WK FOR 12 WK", "value": "11/34 (32%), 9/33 (27%), 16%, not significant"}, {"measurement": "tumour outcome (control, treated, inhibition, significance)", "setting": "Carcinogen: N-METHYL-N-NITROSOUREA, 684-93-5, Dose [Inhibitor]: 1 MG/KG IN DIET DAILY STARTING 7 D AFTER CARCINOGEN TREATMENT AND CONTINUING FORDURATION OF STUDY (STUDY DURATION: 120 D, Route [Inhibitor]: ORAL, Species: RAT, Strain/Sex: SPRAGUE-DAWLEY/FEMALE, Target Tissue: Type of Lesion: MAMMARY GLAND: ADENOCARCINOMA, Dose [Carcinogen]: 35 MG/KG BW IN 0.9% SALINE ONCE AT 50 D OF AGE", "value": "68%, 68%, 0%, not calculated"}, {"measurement": "tumour outcome (control, treated, inhibition, significance)", "setting": "Carcinogen: N-METHYL-N-NITROSOUREA, 684-93-5, Dose [Inhibitor]: 5 MG IN DIET DAILY STARTING AT AGE 5 WK 2 WK PRIOR TO FIRST CARCINOGEN TREATMENT AND CONTINUING FOR DURATION OF STUDY (S, Route [Inhibitor]: ORAL, Species: HAMSTER, Strain/Sex: SYRIAN/MALE, Target Tissue: Type of Lesion: TRACHEA: CARCINOMA, Dose [Carcinogen]: 0.5% SOLUTION (PH 5) 1/WK FOR 12 WK", "value": "9/34 (26%), 10/31 (32%), -23%, not significant"}]}
